# Where two headings read alike, the source gives them in different places.
# Key:
# H. influenza 9334 = assay: Antibacterial activity (MIC), agar plate dilution method; assay type: cell-based; conditions: 37° C., 20 hours, blood agar seed culture
# Description: (§1) Antibacterial activities of the compounds of formula (I) are shown in Table 1 in terms of minimum inhibitory concentration (MIC).
# (§2) Minimum inhibitory concentration was determined by the agar plate dilution method. Test strains were subjected to seed culture using Sensitivity test broth (STB, Nissui Pharmaceutical) except that the strains belonging to the genus Streptococcus, Branhamella and Haemophilus were cultured on blood agar plate. A 5 μl portion of cell suspension of the test strains having about 10^6 CFU/ml was inoculated into Sensitivity disk agar (SDA, Nissui Pharmaceutical) supplemented with 5% horse blood and incubated at 37° C. for 20 hours. Then, MIC was measured.
# B. catarrhalis W-0500 = assay: as above; assay type: cell-based; conditions: Moraxella catarrhalis, W0500; 37° C., 20 hours; blood agar seed culture; B. catarrhalis W-0500; read-out: Antibacterial activity (MIC)
# Description: as §1, §2
# Sta. aureus M126 = assay: as above; assay type: cell-based; conditions: Staphylococcus aureus, 37° C., 20 hours
# Description: as §1, §2
# M. luteus ATCC 9341 = assay: as above; assay type: cell-based; conditions: Micrococcus luteus, ATCC9341, 37° C., 20 hours
# Description: as §1, §2
# [1] = test system: Sta. aureus MS15009/pMS99; assay: as above; assay type: cell-based; conditions: Staphylococcus aureus, MS15009/PMS99, 20 h, read-out: Antibacterial activity (MIC)
# Description: as §1, §2
# Ent. faecalis W-73 = assay: as above; assay type: cell-based; conditions: Enterococcus faecalis, W73, 37° C., 20 hours
# Description: as §1, §2
# S. Pyogenes Cook = assay: as above; assay type: cell-based; conditions: Streptococcus pyogenes, 37° C., 20 hours, blood agar seed culture
# Description: as §1, §2
# E. coli NIHJ JC-2 = assay: as above; assay type: cell-based; conditions: Escherichia coli, NIHJJC2, 37° C., 20 hours
# Description: as §1, §2
# S. pneumoniae Type 1 = assay: as above; assay type: cell-based; conditions: Streptococcus pneumoniae, TYPE1, 37° C., 20 hours, blood agar seed culture
# Description: as §1, §2
# Sta. aureus MS15027 = assay: as above; assay type: cell-based; conditions: Staphylococcus aureus, read-out: Antibacterial activity (MIC)
# Description: as §1, §2
# K. pneumoniae PC1602 = assay: as above; assay type: cell-based; conditions: Klebsiella pneumoniae, 37° C., 20 hours
# Description: as §1, §2
# Sta. aureus M133 = assay: as above; assay type: cell-based; conditions: Staphylococcus aureus; 37° C., 20 hours; Sta. aureus M133; read-out: Antibacterial activity (MIC)
# Description: as §1, §2
# S. pneumoniae IP692 = assay: as above; assay type: cell-based; conditions: Streptococcus pneumoniae, 37° C., 20 hours, blood agar seed culture
# Description: as §1, §2
# B. catarrhalis W-0506 = assay: as above; assay type: cell-based; conditions: Moraxella catarrhalis, read-out: Antibacterial activity (MIC)
# Description: as §1, §2
# Sta. aureus MS15026 = assay: as above; assay type: cell-based; conditions: Staphylococcus aureus, 37° C., 20 hours
# Description: as §1, §2
# [2] = test system: Sta. epidermidis ATCC 14990; assay: as above; assay type: cell-based; conditions: Staphylococcus epidermidis, ATCC14990; 37° C., 20 hours; Sta. epidermidis ATCC 14990; read-out: Antibacterial activity (MIC)
# Description: as §1, §2
# Sta. aureus 209P JC-1 = assay: as above; assay type: cell-based; conditions: Staphylococcus aureus, 37° C., 20 hours
# Description: as §1, §2
# [3] = test system: Sta. aureus MS15009/pMS98; assay: as above; assay type: cell-based; conditions: Staphylococcus aureus, MS15009/PMS98, 20 h, read-out: Antibacterial activity (MIC)
# Description: as §1, §2
# M. luteus = assay type: in vitro ADME
# Description: Changes in the antibacterial activities of miokamycin (MOM) and the compound (13) were measured in the following manner.
# Each test compound and 50 μl of a methanol solution (10,000 γ) were added to 950 μl of thawed rat plasma and the resulting mixture was incubated at 37° C. A 20 μl portion of the mixture was sampled after 0, 1, 3, 6 and 24 hours and added to 980 μl of 0.05M phosphate buffer (pH 7.2). A 20 μl portion of the sample solution was used to measure antibacterial activity against M. luteus. Separately, the calibration curve was prepared by using a methanol solution containing each test compound. The starting activity of each compound in the plasma was referred to as 100%.
# gram-positive bacteria = assay: Antibacterial activities against gram-positive bacteria (summary of Table 1); assay type: cell-based; conditions: in words
# Description: as §1, §2
# [4] = 37° C., 20 hours, Sta. aureus MS15027
# [5] = W0506, 37° C., 20 hours, blood agar seed culture, B. catarrhalis W-0506
Structure (SMILES),MIC (H. influenza 9334) [µg/mL],MIC (B. catarrhalis W-0500) [µg/mL],MIC (Sta. aureus M126) [µg/mL],MIC (M. luteus ATCC 9341) [µg/mL],MIC [1] [µg/mL],MIC (Ent. faecalis W-73) [µg/mL],MIC (S. Pyogenes Cook) [µg/mL],MIC (E. coli NIHJ JC-2) [µg/mL],MIC (S. pneumoniae Type 1) [µg/mL],MIC (Sta. aureus MS15027; [4]) [µg/mL],MIC (K. pneumoniae PC1602) [µg/mL],MIC (Sta. aureus M133) [µg/mL],MIC (S. pneumoniae IP692) [µg/mL],MIC (B. catarrhalis W-0506; [5]) [µg/mL],MIC (Sta. aureus MS15026) [µg/mL],MIC [2] [µg/mL],MIC (Sta. aureus 209P JC-1) [µg/mL],MIC [3] [µg/mL],other results
CCC(=O)O[C@@H]1CC(=O)O[C@H](C)C/C=C/C=C/C(=O)[C@H](C)C[C@H](CC=O)[C@H](O[C@@H]2O[C@H](C)[C@@H](O[C@H]3C[C@@](C)(OC)[C@@H](OCCCC(C)C)[C@H](C)O3)[C@H](N(C)C)[C@H]2O)[C@H]1OC [Compound (43)],12.5,1.56,> 100,0.05,> 100,3.13,0.05,> 100,0.2,1.56,> 100,1.56,0.2,1.56,> 100,1.56,0.39,0.78,
CCO[C@H]1[C@H](C)O[C@@H](O[C@H]2[C@H](N(C)C)[C@@H](O)[C@H](O[C@H]3[C@@H](CC=O)C[C@@H](C)C(=O)/C=C/C=C/C[C@@H](C)OC(=O)C[C@@H](OC(=O)CC)[C@@H]3OC)O[C@@H]2C)C[C@@]1(C)OC [Compound (13)],100,3.13,> 100,0.78,> 100,3.13,0.78,> 100,1.56,,> 100,3.13,1.56,,> 100,12.5,3.13,6.25,"antibacterial activity in rat plasma over time (M. luteus): antibacterial activity sustaining for a prolonged period of time in rat plasma; degree of the decrease in the antibacterial activity in plasma (M. luteus): clearly lower degree of the decrease in the antibacterial activity in plasma, compared with miokamycin; metabolism at the mycarose moiety in plasma (M. luteus): hardly metabolized at the mycarose moiety; MIC (Sta. aureus MS15027; MS15027, 20 h): 6.25 µg/mL; MIC (B. catarrhalis W-0506; W0506, 20 h): 6.25 µg/mL; antibacterial activities against gram-positive bacteria (gram-positive bacteria): have antibacterial activities against gram-positive bacteria"
CCC(=O)O[C@@H]1CC(=O)O[C@H](C)C/C=C/C=C/C(=O)[C@H](C)C[C@H](CC=O)[C@H](O[C@@H]2O[C@H](C)[C@@H](O[C@H]3C[C@@](C)(OC)[C@@H](OCC=C(C)C)[C@H](C)O3)[C@H](N(C)C)[C@H]2O)[C@H]1OC [Compound (40)],12.5,1.56,> 100,0.1,> 100,3.13,0.2,> 100,0.39,1.56,> 100,1.56,0.39,1.56,> 100,3.13,0.78,0.78,

# From patent US5444174A, “16-membered macrolide derivative having sustained antibacterial activity in plasma, synthesis intermediate thereof and process for producing the same” (Meiji Seika Kaisha, Ltd., priority 1992, dated 1995)
